Source: PubChem BioAssay AID2060890 (Molecular Pharmacology Branch, DTP, NCI, 2025)
Values belong to the molecule of their own block, whether it stands above or below them.

System: LG0703-F948-PDC complex spheroid viability
Assay: Anticancer human tumor LG0703-F948-PDC patient-derived lung adenocarcinoma cell line growth inhibition [RAS]
Details: for IC50: curve of first compound; for viability, T/C: stronger effect = lower value
Source text: RAS pathway inhibitors in Combinations in Complex Spheroids
A high-throughput screen of multi-cell type tumor spheroids was designed to identify active combinations of RAS pathway inhibitors and targeted small molecules. Complex spheroids include a stromal component modeled by human endothelial cells (HUVEC) and fibroblasts modeled by human mesenchymal stem cells (MSCs). The concentration ranges selected for each drug and investigational agent were based upon clinically achievable concentrations if the clinical Cmax of the agent was known.
Compounds. The drugs and investigational agents: abemaciclib (NSC768073), cobimetinib (NSC768068), divarasib (GDC6063, NSC841802), docetaxel (NSC628503), GDC-1971 (RLY-1971, NSC841576), gemcitabine (NSC613327), inavolisib (NSC800729), ipatasertib (NSC767898), KB-0742 (NSC834161), MRTX-1133 (NSC836407), osimertinib (NSC779217), RMC-4630 (NSC839698), RMC-6236 (NSC851965), RMC-6291 (NSC852671), Ro-3306 (NSC812927), sapanisertib (NSC764658), SN-38 (NSC673596), staurosporine (NSC755774), SY5609 (NSC837396), and tovorafenib (DAY101, NSC766906), were obtained from the National Cancer Institute (NCI) Developmental Therapeutics Program Chemical Repository. The FDA-approved anticancer drug set is available from the NCI Developmental Therapeutics Program. […] The stock solutions were prepared in dimethyl sulfoxide (DMSO, Sigma-Aldrich, St. Louis, MO, cat. D2650) at 800-fold the tested concentration and stored at -70 degrees C prior to their use. All drugs and investigational agents were tested over a range starting from a high concentration at or near the clinical Cmax and decreasing in half-log increments. If the clinical Cmax for an agent had not been determined, the highest concentration tested was 10 microM.
Cell Culture. All cells were maintained in an incubator at 37 degrees C and 5% CO2 with 95% humidity. The PDC lines were cultured according to standard operating procedures established by the NCI PDMR. All PDCs were thawed and cultured in Matrigel-coated flasks prepared with a working solution of 1X Ham's F-12 nutrient mix, without supplementation (Invitrogen, Waltham, MA, cat. 11765054), 100 U/mL penicillin-streptomycin (Invitrogen, cat. 15140122), and 2.5% Matrigel (Corning Inc., Corning, NY, cat. 354248) for the first three passages. The 362531-283-R-J2-PDC and 782815-120-R-J1-PDC lines were cultured in 6C/Colon 1B media, which includes advanced DMEM/F-12 (Thermo Fisher Scientific, cat. 12634028), 10 mM HEPES (Thermo Fisher Scientific, cat. 15630080), 1X GlutaMAX supplement (Thermo Fisher Scientific, cat. 35050061), 0.1 mg/mL primocin (InvivoGen, San Diego, CA, cat. ant-pm-2), 10% defined fetal bovine serum, heat inactivated (HyClone Laboratories Inc., Logan, UT, cat. SH30070.03HI), 50% L-WRN conditioned media (ATCC, cat. CRL-3276), 1.25 mM N-Acetyl-L-cysteine (Sigma-Aldrich, cat. A9165), 10 mM nicotinamide (Sigma-Aldrich, cat. N0636), 1X B-27 supplement (Thermo Fisher Scientific, cat. 17504044), 1X N-2 supplement (Thermo Fisher Scientific, cat. 17502048), 50 ng/mL human EGF (Thermo Fisher Scientific, cat. PHG0311), and 10 microM Y-27632 dihydrochloride (Tocris Bioscience, cat. 1254). The K12877-001-R-J1-PDC line was cultured in 6I media, which includes all 6C/Colon 1B media plus 10 ng/mL human FGF-10 (PeproTech, cat. 100-26), 1 ng/mL human FGF-2 (PeproTech, cat. 100-18B), 1 µM prostaglandin E2 (Tocris Bioscience, cat. 2296), […] hydrocortisone (Sigma-Aldrich, cat. H4001), and […] bovine insulin (Sigma-Aldrich, cat. I6634). The K86415-001-R-J1-PDC line was cultured in 6D media, which includes all 6C/Colon 1B media components minus the L-WRN conditioned media. The 485176-168-R4-J1-PDC was cultured in PANC media, which includes all 6C/Colon 1B media plus 100 ng/mL human FGF-10 (PeproTech, cat. 100-26), 500 nM SB-431542 (Selleckchem, cat. S1067), and 10 nM gastrin (Tocris Bioscience, cat. 3006). […]

[1] = second compound 0.00316 µM, first compound 0.0316 µM
[2] = second compound 0.00316 µM, first compound 0.1 µM
[3] = second compound 0.00316 µM, first compound 0.316 µM
[4] = second compound 0.00316 µM, first compound 1 µM
[5] = second compound 0.01 µM, first compound 0.0316 µM
[6] = second compound 0.01 µM, first compound 0.1 µM
[7] = second compound 0.01 µM, first compound 0.316 µM
[8] = second compound 0.01 µM, first compound 1 µM
[9] = second compound 0.0316 µM, first compound 0.0316 µM
[10] = second compound 0.0316 µM, first compound 0.1 µM
[11] = second compound 0.0316 µM, first compound 0.316 µM
[12] = second compound 0.0316 µM, first compound 1 µM
[13] = second compound 0.1 µM, first compound 0.0316 µM
[14] = second compound 0.1 µM, first compound 0.1 µM
[15] = second compound 0.1 µM, first compound 0.316 µM
[16] = second compound 0.1 µM, first compound 1 µM
[17] = second compound 0.316 µM, first compound 0.0316 µM
[18] = second compound 0.316 µM, first compound 0.1 µM
[19] = second compound 0.316 µM, first compound 0.316 µM
[20] = second compound 0.316 µM, first compound 1 µM
[21] = second compound 1 µM, first compound 0.0316 µM
[22] = second compound 1 µM, first compound 0.1 µM
[23] = second compound 1 µM, first compound 0.316 µM
[24] = second compound 1 µM, first compound 1 µM
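Wherever viability, T/C is given: 100% = DMSO vehicle wells.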

IC50 (second compound 0.00316 µM): 27.1 nM | IC50 (second compound 0.01 µM): 34 nM | IC50 (second compound 0.0316 µM): 35.6 nM | IC50 (second compound 0.1 µM): 31.7 nM | IC50 (second compound 0.316 µM): 36.3 nM | IC50 (second compound 1 µM): 46 nM
Structure (SMILES): O=C(c1ccc(F)c(F)c1Nc1ccc(I)cc1F)N1CC(O)([C@@H]2CCCCN2)C1 + C=CC(=O)N1CCN(c2nc(OCC3CCCN3C)nc3c(F)c(-c4nc(N)cc(C)c4C(F)(F)F)c(Cl)cc23)C(C)C1
viability, T/C (second compound 0.00316 µM, first compound 0.00316 µM): 92.1% | viability, T/C (second compound 0.00316 µM, first compound 0.01 µM): 69.6% | viability, T/C [1]: 47.3% | viability, T/C [2]: 30.2% | viability, T/C [3]: 19.5% | viability, T/C [4]: 16.7% | viability, T/C (second compound 0.01 µM, first compound 0.00316 µM): 92.6% | viability, T/C (second compound 0.01 µM, first compound 0.01 µM): 79.5% | viability, T/C [5]: 51.3% | viability, T/C [6]: 26.8% | viability, T/C [7]: 16.8% | viability, T/C [8]: 13.2% | viability, T/C (second compound 0.0316 µM, first compound 0.00316 µM): 94.2% | viability, T/C (second compound 0.0316 µM, first compound 0.01 µM): 81.2% | viability, T/C [9]: 52.3% | viability, T/C [10]: 27.7% | viability, T/C [11]: 17.6% | viability, T/C [12]: 14.2% | viability, T/C (second compound 0.1 µM, first compound 0.00316 µM): 89.7% | viability, T/C (second compound 0.1 µM, first compound 0.01 µM): 74.1% | viability, T/C [13]: 50.6% | viability, T/C [14]: 27.9% | viability, T/C [15]: 18.9% | viability, T/C [16]: 13.8% | viability, T/C (second compound 0.316 µM, first compound 0.00316 µM): 90.8% | viability, T/C (second compound 0.316 µM, first compound 0.01 µM): 82.5% | viability, T/C [17]: 52.8% | viability, T/C [18]: 27% | viability, T/C [19]: 19.7% | viability, T/C [20]: 17.5% | viability, T/C (second compound 1 µM, first compound 0.00316 µM): 99.8% | viability, T/C (second compound 1 µM, first compound 0.01 µM): 92.7% | viability, T/C [21]: 58.4% | viability, T/C [22]: 30.9% | viability, T/C [23]: 23.6% | viability, T/C [24]: 18%

IC50 (second compound 0.00316 µM): 4290 nM | IC50 (second compound 0.01 µM): 4160 nM | IC50 (second compound 0.0316 µM): 4670 nM | IC50 (second compound 0.1 µM): 4250 nM | IC50 (second compound 0.316 µM): 4340 nM | IC50 (second compound 1 µM): 4130 nM
Structure (SMILES): CC1(O)CCCC1n1c(=O)c(C(F)F)cc2cnc(NC3CCN(S(C)(=O)=O)CC3)nc21 (centres undefined) + C=CC(=O)N1CCN(c2nc(OCC3CCCN3C)nc3c(F)c(-c4nc(N)cc(C)c4C(F)(F)F)c(Cl)cc23)C(C)C1
viability, T/C [1]: 96.7% | viability, T/C [2]: 91.2% | viability, T/C [3]: 86.1% | viability, T/C [4]: 76.8% | viability, T/C (second compound 0.00316 µM, first compound 3.16 µM): 66.9% | viability, T/C (second compound 0.00316 µM, first compound 10 µM): 14.1% | viability, T/C [5]: 103% | viability, T/C [6]: 103% | viability, T/C [7]: 90.1% | viability, T/C [8]: 72.9% | viability, T/C (second compound 0.01 µM, first compound 3.16 µM): 69% | viability, T/C (second compound 0.01 µM, first compound 10 µM): 15.8% | viability, T/C [9]: 97.8% | viability, T/C [10]: 104% | viability, T/C [11]: 85.9% | viability, T/C [12]: 76.7% | viability, T/C (second compound 0.0316 µM, first compound 3.16 µM): 75.5% | viability, T/C (second compound 0.0316 µM, first compound 10 µM): 14.7% | viability, T/C [13]: 107% | viability, T/C [14]: 104% | viability, T/C [15]: 88% | viability, T/C [16]: 75.2% | viability, T/C (second compound 0.1 µM, first compound 3.16 µM): 73.9% | viability, T/C (second compound 0.1 µM, first compound 10 µM): 10.9% | viability, T/C [17]: 106% | viability, T/C [18]: 89.5% | viability, T/C [19]: 94.9% | viability, T/C [20]: 75.7% | viability, T/C (second compound 0.316 µM, first compound 3.16 µM): 72% | viability, T/C (second compound 0.316 µM, first compound 10 µM): 9.28% | viability, T/C [21]: 115% | viability, T/C [22]: 105% | viability, T/C [23]: 92.5% | viability, T/C [24]: 76.4% | viability, T/C (second compound 1 µM, first compound 3.16 µM): 74.9% | viability, T/C (second compound 1 µM, first compound 10 µM): 6.44%
